Measurements taken from US20200121697A1, “METHODS FOR DIAGNOSING AND TREATING CACHEXIA” (Aurin Biotech Inc., priority 2017, published 2020).
Values belong to the compound of their own block, whether it stands above or below them.

Assays:
salivary TNFα = assay: Salivary TNFα levels (ELISA) and cachexia symptoms in cachexic cancer patients under oral treatment; type: in vivo, human
Excerpt: Endogenous TNFα production can be measured by ELISA. The data reported herein used the Peprotech human TNFα kit (catalog 900-T25) following directions of the manufacturer. Alternative ELISA methods, not relying on commercial manufacturers, could be employed. […] This standard curve was used to calculate TNFα production in various organs and in saliva as presented herein.
The stabilization step may involve known methods for stabilizing TNFα, such as those described by Lee et al. (2017), incorporated herein by reference.
The detection step is designed to treat the stabilized saliva sample with an TNFα antibody in such a way as to bind essentially all of the TNFα present in the sample. The detection step may involve an immunoassay, such as an ELISA test based on an antigen-antibody reaction using TNFα as the antigen to be measured. For example, the capture antibody may be a polyclonal antibody specific for TNFα. […] In some embodiments the second TNFα antibody may be a monoclonal antibody, such as a mouse monoclonal antibody. Biotin may then be bound to the monoclonal antibody or to a third IgG antibody to which biotin is bound. The biotin levels are detected by first treating with a streptavidin solution linked with horse radish peroxidase (HRP) followed by treatment with a tetramethylbenzidine solution to detect the HRP by reading the resulting color in a spectrophotometer. An ELISA standard concentration graph of target TNFα may be obtained, for example, by absorbance detection, fluorescence detection, luminescence detection, or electrochemical detection. […] Alternatively, the immunoassay may be performed by a method capable of directly or indirectly detecting TNFα. Examples of such alternative methods include MS (Mass Spectrometry), MS/MS, and liquid chromatography.
The invention can be further understood by reference to the following examples, which are provided by way of illustration and are not meant to be limiting. The examples are of human cancer cases that had become cachexic. The patients had salivary TNFα levels ranging from 405 to 462 pg/ml. The TNFα in these cases was restored to normal levels by treatment with DAS (4,4′-diacetoxy-1,1 biphenyl-3,3′ dicarboxylic acid) or APAC for 10-21 days. […] They also support the fact that complement is required for TNFα production.

TNFα [1] = assay: Binding of APAC and DAS to TNFα / TNFα peptide
Method: (§1) A 12-mer peptide spot array was synthesized on a cellulose membrane using a Semi-automated AutoSpot robot (INTAVIS, USA) covering the 233 amino acid sequence of TNFα. A total of 112 peptides, each shifted by 2 amino acids were synthesized. The TNFα membrane was soaked in 50% methanol in 10 mM PBS (pH7.4) for 2 minutes, then washed twice with PBS. The membrane was then incubated with 1 mM of APAC or DAS in PBS (10 mM, pH7.4) for one hour at 37° C. After washing 3 times with PBS, positive images were captured with a SYPRO Ruby filter for APAC and an Alexa 680 filter for DAS by the Chemidoc MP imaging System (Bio-Rad, USA).
(§2) A strongly positive peptide sequence was chosen for synthesis of a potential inhibitor of TNFα binding. The sequence of this TNFα-A2 peptide was NH3-YLGGVFQLEKGDRLSA-COOH. It was synthesized using a standard peptide Synthesizer (Liberty Blue, CEM Inc, USA) with Wang Resin and Fmoc amino acids (GL Biochem Ltd, Shanghai, CN). After synthesis, the peptide was purified by HPLC on a C18 column (Quadarupole 6110 LC/MS, Agilent Technology, USA) with a flow phase of 0.5% trifluroacetic acid (TFA) in acetonitrile to 0.05% TFA in H2O. The eluted peptide was detected by ultraviolet light (280 nm). The peptide inhibited binding of APAC to TNFα (FIG. 9) and of DAS to TNFα (FIG. 10).

TNFα [2] = biological target: TNFα (Homo sapiens, UniProt P01375); assay: Binding of APAC and DAS to TNFα / TNFα peptide; conditions: 0-5 nmol/ml of DAS and 0-175 nmol/ml of TNFα peptide, FIG. 10
Method: as §1, §2

Compound: NC(=O)NO [hydroxyurea, reference compound]
salivary TNFα level (salivary TNFα; Example 1, terminal leukemia patient, ten days after APAC discontinued (155 pg/ml on Day 20) and hydroxyurea 500 mg×2/day begun): 228 pg/mL

binding of APAC to TNFα in presence of the peptide (TNFα [1]; FIG. 9): inhibited | binding of DAS to TNFα in presence of the peptide (TNFα [1]; FIG. 10): inhibited
Compound: TNFα-A2 peptide: synthesized TNFα sequence peptide NH3-YLGGVFQLEKGDRLSA-COOH (H-YLGGVFQLEKGDRLSA-OH)

Compound: CC(=O)Oc1ccc(-c2ccc(OC(C)=O)c(C(=O)O)c2)cc1C(=O)O [DAS, 4,4′-diacetoxy-1,1 biphenyl-3,3′ dicarboxylic acid]
symptoms of cachexia (salivary TNFα; Example 4, peritoneal carcinomatosis patient, DAS 3×100 mg/day, Day 12): subsided | salivary TNFα level (salivary TNFα; Example 4, peritoneal carcinomatosis patient, DAS 3×100 mg/day, nine days into treatment (Day 12)): 161 pg/mL | salivary TNFα level (salivary TNFα; Example 4, person, stage IV peritoneal carcinomatosis and cachexia, 394 pg/ml Day 0, 406 pg/ml before start, DAS 3×100 mg/day, five days into treatment (Day 8)): 288 pg/mL | increased salivary TNFα levels of cachexic cancer patients (salivary TNFα; oral intake): rapidly reduced to normal levels | elevated salivary TNFα over time (salivary TNFα; patient with terminal colon cancer, FIG. 14): reversed | binding of DAS to a TNFα peptide as a function of the peptide concentration (TNFα [2]): linear
